The text below walks through data of publication PMC2827657 (Biochemistry, 2010).

One data set deals with P. putida S12. The note with it: growth of P. putida S12; cited from earlier work.
For data set [1] the following is noted: cited from earlier work.
For data set [2], the target named is NSMOA (Pseudomonas sp, UniProt O50214). Description: Stopped-flow fluorescence kinetics of oxidized FAD binding to NSMOA. Also noted: species or system Pseudomonas putida S12. The note with it: 280 μM NSMOA mixed with 50 μM FAD, 25°C, four-exponential fit.
Data set [3] addresses NSMOA (Pseudomonas putida, UniProt O33471). Description: Linkage relationships of ligand binding and redox equilibria of NSMOA. The arrangement: species or system Pseudomonas putida S12.
A further data set deals with apo NSMOA (Pseudomonas sp, UniProt O50214). Description: biochemical.
[4] abbreviates: calculated from linkage relationships.

Broadly, the Kd is the free concentration of one partner at which half of the binding sites on the other are occupied at equilibrium, for simple one-to-one binding. Lower therefore signals a tighter complex.

Chain of NSMOA (Pseudomonas sp, UniProt O50214) (O50214 whole entry): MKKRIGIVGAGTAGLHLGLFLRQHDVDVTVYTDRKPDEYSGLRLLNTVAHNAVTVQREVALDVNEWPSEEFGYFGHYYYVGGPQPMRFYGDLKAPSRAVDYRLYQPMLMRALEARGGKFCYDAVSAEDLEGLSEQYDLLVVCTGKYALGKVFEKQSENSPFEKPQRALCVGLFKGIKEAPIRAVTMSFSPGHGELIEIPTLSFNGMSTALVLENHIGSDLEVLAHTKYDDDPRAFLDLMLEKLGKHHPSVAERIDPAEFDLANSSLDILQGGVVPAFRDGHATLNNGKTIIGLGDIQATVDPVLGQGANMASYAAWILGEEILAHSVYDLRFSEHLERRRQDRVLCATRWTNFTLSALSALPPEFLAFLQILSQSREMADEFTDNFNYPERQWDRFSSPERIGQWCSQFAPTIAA
Chain of apo NSMOA (O50214 whole entry): as above

With `C=Cc1ccccc1` [styrene], in the data set on P. putida S12, the “styrene concentration at which growth is inhibited” value is recorded as “greater than 300 μM”.
`Cc1cc2nc3c(=O)[nH]c(=O)nc-3n(C[C@H](O)[C@H](O)[C@H](O)COP(=O)(O)OP(=O)(O)OC[C@H]3O[C@@H](n4cnc5c(N)ncnc54)[C@H](O)[C@@H]3O)c2cc1C` [oxidized FAD, flavin adenine dinucleotide]: the “Em1, solution potential of free FAD” value in data set [1] was -212 mV. Besides, at NSMOA [2], the “rate constant k1” value was 265 s⁻¹, the “rate constant k2” value came to 120 s⁻¹, the “rate constant k3” value was 21 s⁻¹ and the “rate constant k4” value was 0.34 s⁻¹. Further, at NSMOA [3] (setting [4]), the “equilibrium midpoint potential of FAD bound to benzene-bound NSMOA” value is recorded as -142 mV and the “equilibrium midpoint potential of FAD bound to benzene-free NSMOA” value is listed as -97 mV.
On apo NSMOA, `c1ccccc1` [benzene, reference compound] yielded a Kd of 4.2 ± 0.37 mM. For the same compound, the “positive cooperative interaction of benzene and reduced FAD binding (Kd1/Kd7)” value at NSMOA [3] (benzene affinity for reduced-FAD complex of NSMOA relative to comparison state) is listed as around 2 fold. The “decrease in cooperativity of substrate-analog and reduced-FAD binding equilibria” value at NSMOA [3] (relative to oxidized FAD cooperativity) is 30 fold.
